Source: paper PMC7736868, “Fluorescent ligands for dopamine D2/D3 receptors” (Scientific Reports, 2020)

Columns and labels:
secNluc-D3R [1] = target: T1, secNluc-D3R (UniProt P35462+Q9GV45, A31E/A60N/A81I/F95D/I117V/K70R/L54V/L99Q/M102K/N193R/P142E/Q151K/Q38R/Q45L/V71I/Y165I); assay: Membrane-based NanoBRET saturation binding; settings: membranes from HEK293T cells expressing secNluc-D3R; KD ± SEM
Method: . After addition of furimazine (1:5,000, final volume 35 µL), and 5 min incubation at room temperature in the dark, BRET readings were obtained using a CLARIOstar plate reader equipped with a 475/30 nm donor together with a 535/30 nm (for 10a) or 620/30 nm (for 10b) acceptor emission filter. […]. Kinetic assays were monitored at room temperature and minimal possible cycle time of the CLARIOstar was used for each measurement. Data was fitted to one phase association and dissociation equations in PRISM6.0 to determine the kinetic constants. In competition binding experiments, membranes were incubated with serial dilutions of unlabeled ligands and the fluorescent ligand 10a (10 or 100 nM) for 90 min at 37 °C. Addition of furimazine (1:5,000) and BRET measurements were carried out as described above. Data analysis was performed using the one site—fit Ki equation in PRISM6.0 to determine the inhibition constants (Ki) of the unlabeled ligands.
Supplementary Fig. 4. NanoBRET saturation curves obtained with ligands 10a,b and membranes from HEK293T expressing secNluc- D3R. […]
calculated as the difference between total and non- specific binding . BRET was measured after 90 min incubation at 37 °C and represents mean ± SD of an individual representative out of 3 – 4 independent experiments, with each condition in triplicate. […]

secNluc-D3R [2] = target: T1, secNluc-D3R; assay: Live-cell NanoBRET saturation binding, HEK293T cells
Method: Figure 5 NanoBRET saturation curves for the fluorescent ligands 10a-c. Saturation binding experiments were performed with live HEK293T cells expressing secNluc-D3R and the fluorescent ligands 10a, 10b and 10c, comprising a trifluorethyl-rhodamine derivative, a Cy3B and an Alexa488 fluorophore, respectively. […] Data points show mean ± SEM of one representative out of n = 5 (for 10a) or n = 4 (for 10b,c) experiments, with each condition carried out in triplicate. The netBRET signal was calculated as the difference between total BRET and the signal obtained in the absence of a fluorescent ligand.
For whole cell NanoBRET saturation assays, HEK293T cells were transfected with secNluc-D3R employing Mirus TransIT-293 (3:1 reagent to DNA ratio). After 24 h at 37 °C, 5% CO2, cells were detached using Versene and transferred to white, F-bottom 384-well plates at a density of 2,500 cells/well and incubated for another 24 h at 37 °C, 5% CO2. Cells were washed with PBS and incubated for 30 min at 37 °C with 5% FBS in DMEM without phenol red, before the fluorescent ligands (5 µL, diluted into DMEM without phenol red with 5% FBS from a 1 mM DMSO-stock) were added. […] After 1 h incubation with the ligands at 37 °C, furimazine (Promega, final dilution 1:500 to 1:2,500) was added, followed by a 5 min incubation at room temperature in the dark. BRET was measured as the ratio of acceptor fluorescence and donor luminescence employing a CLARIOstar microplate reader equipped with 475/30 nm and 535/30 or 580/30 emission filters, respectively. Total, non-specific and specific binding were analyzed employing the algorithms for one-site saturation binding implemented in PRISM6.0 or 8.0.

[3] = read-out: KD NanoBRET saturation; live HEK293T cells expressing secNluc-D3R; KD ± SEM

T1 sequence (Q9GV45+P35462 fused with the stated changes): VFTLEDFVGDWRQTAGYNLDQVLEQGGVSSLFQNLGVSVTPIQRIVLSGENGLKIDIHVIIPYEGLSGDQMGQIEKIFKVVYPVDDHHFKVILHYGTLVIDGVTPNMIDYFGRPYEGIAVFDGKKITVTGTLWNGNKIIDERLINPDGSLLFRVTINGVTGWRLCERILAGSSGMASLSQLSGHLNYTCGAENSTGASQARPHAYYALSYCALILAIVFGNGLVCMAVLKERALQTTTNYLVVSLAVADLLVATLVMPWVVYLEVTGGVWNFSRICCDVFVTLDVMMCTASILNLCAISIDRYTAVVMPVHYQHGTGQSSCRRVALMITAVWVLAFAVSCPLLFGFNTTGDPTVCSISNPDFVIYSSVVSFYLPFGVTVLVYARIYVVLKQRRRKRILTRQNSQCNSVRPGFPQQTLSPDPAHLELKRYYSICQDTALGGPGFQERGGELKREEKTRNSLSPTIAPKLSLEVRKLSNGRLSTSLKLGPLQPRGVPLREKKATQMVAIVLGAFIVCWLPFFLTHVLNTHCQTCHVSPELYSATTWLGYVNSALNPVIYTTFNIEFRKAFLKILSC

SMILES	Kd (secNluc-D3R [1]) [pM]	Kd (secNluc-D3R [2]; live HEK293T cells expressing secNluc-D3R; KD ± SEM; read-out: KD NanoBRET saturation) [pM]	Kd (secNluc-D3R [2]; [3]) [pM]
CCCN(CCCCc1cn(-c2ccc(CNC(=O)c3ccc(-c4c5ccc(=NCC(F)(F)F)cc-5oc5cc(NCC(F)(F)F)ccc45)c(C(=O)O)c3)cc2)nn1)C1Cc2ccccc2C1 [10a]	900 ± 140	720 ± 70	
CCCN(CCCCc1cn(-c2ccc(C(=O)NCCCNC(=O)Cc3ccc4c(c3)C(C)(C)C3=C5C=C6C7=[N+](CCC6OC5CCN34)c3ccc(S(=O)(=O)[O-])cc3C7(C)C)cc2)nn1)C1Cc2ccccc2C1 (centres unmarked) [10b]	11300 ± 1600		12100 ± 1700
CCCN(CCCCc1cn(-c2ccc(C(=O)NCCCNC(=O)c3ccc(-c4c5ccc(=N)c(S(=O)(=O)O)c-5oc5c(S(=O)(=O)O)c(N)ccc45)c(C(=O)O)c3)cc2)nn1)C1Cc2ccccc2C1 [10c]			720 ± 80
